From patent publication US9938562B2, “Naphthalene derived chromogenic enzyme substrates” (Glycosynth Limited, priority 2013, dated 2018)
Where a name gives a salt, the structure may show the parent alone.

Key:
Type in all cases: cell-based
[1] = test system: Candida albicans ATCC 90028; details: Columbia agar, FAC 500 mg/L, substrate 300 mg/L, 37° C. 18 h in air
[2] = test system: Yersinia enterocolitica NCTC 11176; experiment: Agar plate multi-point inoculation, colour; details: Columbia agar, FAC 500 mg/L, substrate 300 mg/L, 37° C. 18 h in air
[3] = test system: Salmonella typhimurium NCTC 74; experiment: Agar plate multi-point inoculation, colour; details: Columbia agar, FAC 500 mg/L, substrate 300 mg/L, 37° C. 18 h in air
[4] = test system: Bacillus subtilis NCTC 9372; experiment: Agar plate multi-point inoculation, colour; details: Columbia agar, FAC 500 mg/L, substrate 300 mg/L, 37° C. 18 h in air
[5] = test system: Escherichia coli NCTC 10418; experiment: Agar plate multi-point inoculation, colour; details: Columbia agar, FAC 500 mg/L, substrate 300 mg/L, 37° C. 18 h in air
[6] = test system: Staphylococcus aureus NCTC 6571; experiment: Agar plate multi-point inoculation, colour; details: Columbia agar, FAC 500 mg/L, substrate 300 mg/L, 37° C. 18 h in air
[7] = test system: Burkholderia cepacia 1222; experiment: Agar plate multi-point inoculation, colour; details: Columbia agar, FAC 500 mg/L, substrate 300 mg/L, 37° C. 18 h in air
[8] = test system: Enterobacter cloacae NCTC 11936; experiment: Agar plate multi-point inoculation, colour; details: Columbia agar, FAC 500 mg/L, substrate 300 mg/L, 37° C. 18 h in air
[9] = test system: Citrobacter freundii NCTC 9750 or 46262; experiment: Agar plate multi-point inoculation, colour; details: Columbia agar, FAC 500 mg/L, substrate 300 mg/L, 37° C. 18 h in air
[10] = test system: Candida glabrata NCPF 3943; experiment: Agar plate multi-point inoculation, colour; details: Columbia agar, FAC 500 mg/L, substrate 300 mg/L, 37° C. 18 h in air
[11] = test system: Enterococcus faecium NCTC 7171; experiment: Agar plate multi-point inoculation, colour; details: Columbia agar, FAC 500 mg/L, substrate 300 mg/L, 37° C. 18 h in air
range of microorganisms = experiment: Agar plate evaluation with a range of microorganisms (hue, diffusion, background); details: agar plates with FAC
[12] = test system: Staphylococcus aureus (MRSA) NCTC 11939; experiment: Agar plate multi-point inoculation, colour; details: Columbia agar, FAC 500 mg/L, substrate 300 mg/L, 37° C. 18 h in air
[13] = test system: Pseudomonas aeruginosa NCTC 10662; experiment: Agar plate multi-point inoculation, colour; details: Columbia agar, FAC 500 mg/L, substrate 300 mg/L, 37° C. 18 h in air
[14] = test system: Staphylococcus epidermidis NCTC 11047; experiment: Agar plate multi-point inoculation, colour; details: Columbia agar, FAC 500 mg/L, substrate 300 mg/L, 37° C. 18 h in air
[15] = test system: Morganella morganii 462403 (wild); experiment: Agar plate multi-point inoculation, colour; details: Columbia agar, FAC 500 mg/L, substrate 300 mg/L, 37° C. 18 h in air
[16] = test system: Listeria monocytogenes NCTC 11994; experiment: Agar plate multi-point inoculation, colour; details: Columbia agar, FAC 500 mg/L, substrate 300 mg/L, 37° C. 18 h in air
[17] = test system: Enterococcus faecalis NCTC 775; experiment: Agar plate multi-point inoculation, colour; details: Columbia agar, FAC 500 mg/L, substrate 300 mg/L, 37° C. 18 h in air
[18] = test system: Serratia marcescens NCTC 10211; experiment: Agar plate multi-point inoculation, colour; details: Columbia agar, FAC 500 mg/L, substrate 300 mg/L, 37° C. 18 h in air
[19] = test system: Gram-positive or Gram-negative strains; experiment: Toxicity / growth of microorganisms on substrate agar plates; details: substrate 300 mg/L
Protocol: This compound was tested on agar plates by multi-point inoculation. The plates were made from Columbia agar (Oxoid, Basingstoke, UK) (100 ml) supplemented with ferric ammonium citrate (FAC) (50 mg). After the agar had been autoclaved (121° C.) and cooled to 50° C., a filter sterilized solution of the substrate (8) (30 mg) dissolved in N-methylpyrrolidone (NMP) (200 μL) was added, thus giving a substrate concentration of 300 mg/L. After pouring, the plates were inoculated with a range of microorganisms and incubated at 37° C. for 18 h in air (Table 1).
In the publication of Zincke and Fries, the authors reported that treatment of 1,4,6,7-tetrabromo-DHN (20) with tin (II) chloride led to the removal of the bromines in the 1 and 4 positions. Their work was repeated and the expected 6,7-dibromo-DHN (21) was obtained smoothly and in good yield (68%). 6,7-Dibromo-DHN (21) is isomeric with the 1,4-dibromo compound which had proven unsuccessful as an aglycone for the detection of microorganisms. Notwithstanding this latter fact, we proceeded to evaluate the properties of 6,7-dibromo-DHN […] as an aglycone for artificial chromogenic enzyme substrates. […]

[20] = test system: Steptococcus pyogenes NCTC 8306; experiment: Agar plate multi-point inoculation, colour; details: Columbia agar, FAC 500 mg/L, substrate 300 mg/L, 37° C. 18 h in air
[21] = test system: Providencia rettgeri NCTC 7475; experiment: Agar plate multi-point inoculation, colour; details: Columbia agar, FAC 500 mg/L, substrate 300 mg/L, 37° C. 18 h in air
E. cloacae = experiment: Glucuronide screen, agar plates (CPS ID 3 or Columbia agar)
E. faecium NCTC 7171 = experiment: as above; details: E. faecium NCTC 7171, agar
E. faecalis NCTC 775 = experiment: as above; details: E. faecalis NCTC 775, agar
[22] = test system: clinical isolates of E. coli; experiment: Glucuronide sensitivity screen, agar plates (CPS ID 3 or Columbia agar)
[23] = 100 E. coli strains, agar, 18 h incubation

Compound: OC[C@H]1O[C@@H](Oc2cc3cc(Br)c(Br)cc3cc2O)C(O)C1O (stereo partly drawn) [Compound 23, 6,7-Dibromo-DHN-β-D-ribofuranoside]
- Colour [1]: −
- Colour [2]: −
- Colour [3]: ++
- Colour [4]: −
- Colour [5]: −
- Colour [6]: −
- Colour [7]: +/−
- Colour [8]: ++
- Colour [9]: ++
- Colour [10]: −
- Colour [11]: −
- colour (hue) after hydrolysis (range of microorganisms): largely discrete red-brown or maroon colonies
- Colour [12]: −
- Colour [13]: +
- Colour [14]: −
- Colour [15]: ++
- Colour [16]: −
- Colour [17]: −
- Colour [18]: ++
- growth of Gram-positive bacteria [19]: mainly suppressed
- Colour [20]: −
- Colour [21]: −

Compound: O=C(O)[C@H]1O[C@@H](Oc2c[nH]c3cc(Cl)ccc23)[C@H](O)[C@@H](O)[C@@H]1O [Rose-β-D-glucuronide CHA salt, 6-chloro-3-indolyl β-D-glucuronide]
- Colour (E. cloacae; E. cloacae 260329R, agar): −
- Colour (E. cloacae; E. cloacae NCTC 11936, agar): −
- Colour (E. faecium NCTC 7171): −
- Colour (E. faecalis NCTC 775): −
- % Sensitivity [22]: 81%
- Negative strains [22, 23]: 19
- Positive strains [22, 23]: 81
- Colour ([22]; E. coli 260262P, agar): Red
- Colour ([22]; E. coli 260280Z, agar): Red
- Colour ([22]; E. coli 260310H, agar): Red
- Colour ([22]; E. coli 260313A, agar): −
- Colour ([22]; E. coli 260316T, agar): −
- Colour ([22]; E. coli 260327V, agar): Red
- Colour ([22]; E. coli 260330Y, agar): Red
- Colour ([22]; E. coli 260333P, agar): −
- Colour ([22]; E. coli 260345F, agar): Red
- Colour ([22]; E. coli 260348K, agar): Red
- Colour ([22]; E. coli 260354W, agar): Red
- Colour ([22]; E. coli 260364H, agar): −
- Colour ([22]; E. coli 260370C, agar): Red
- Colour ([22]; E. coli 260375E, agar): Red
- Colour ([22]; E. coli 260390B, agar): −
- Colour ([22]; E. coli 260396Z, agar): Red
- Colour ([22]; E. coli 260398Q, agar): Red
- Colour ([22]; E. coli 260399E, agar): Red
- Colour ([22]; E. coli 260400N, agar): −
- Colour ([22]; E. coli 260401Q, agar): Red
- Colour ([22]; E. coli 260402H, agar): Red
- Colour ([22]; E. coli 260404W, agar): Red
- Colour ([22]; E. coli 260405P, agar): Red
- Colour ([22]; E. coli 260406A, agar): −
- Colour ([22]; E. coli 260406Y, agar): Red
- Colour ([22]; E. coli 260407F, agar): Red
- Colour ([22]; E. coli 260408C, agar): Red
- Colour ([22]; E. coli 260411Z, agar): Red
- Colour ([22]; E. coli 260412Q, agar): Red
- Colour ([22]; E. coli 260414H, agar): Red
- Colour ([22]; E. coli 260415Y, agar): Red
- Colour ([22]; E. coli 260416W, agar): −
- Colour ([22]; E. coli 260417P, agar): Red
- Colour ([22]; E. coli 260422Y, agar): Red
- Colour ([22]; E. coli 260424P, agar): Red
- Colour ([22]; E. coli 260425A, agar): Red
- Colour ([22]; E. coli 260426F, agar): Red
- Colour ([22]; E. coli 260428T, agar): Red
- Colour ([22]; E. coli 260431N, agar): Red
- Colour ([22]; E. coli 260432E, agar): Red
- Colour ([22]; E. coli 260433H, agar): Red
- Colour ([22]; E. coli 260434Y, agar): Red
- Colour ([22]; E. coli 260435W, agar): Red
- Colour ([22]; E. coli 260436P, agar): Red
- Colour ([22]; E. coli 260437A, agar): Tr. Red
- Colour ([22]; E. coli 260438F, agar): Red
- Colour ([22]; E. coli 260439C, agar): Red
- Colour ([22]; E. coli 260440S, agar): Red
- Colour ([22]; E. coli 260441G, agar): Red
- Colour ([22]; E. coli 260458Y, agar): Red
- Colour ([22]; E. coli 260459W, agar): Red
- Colour ([22]; E. coli 260463D, agar): Red
- Colour ([22]; E. coli 260464G, agar): Red
- Colour ([22]; E. coli 260471B, agar): −
- Colour ([22]; E. coli 260478N, agar): −
- Colour ([22]; E. coli 260479Q, agar): Red
- Colour ([22]; E. coli 260480M, agar): Red
- Colour ([22]; E. coli 260481J, agar): Red
- Colour ([22]; E. coli 260483R, agar): −
- Colour ([22]; E. coli 260485D, agar): Red
- Colour ([22]; E. coli 260486L, agar): Red
- Colour ([22]; E. coli 260492J, agar): Red
- Colour ([22]; E. coli 260494B, agar): Red
- Colour ([22]; E. coli 260495R, agar): −
- Colour ([22]; E. coli 260497D, agar): Red
- Colour ([22]; E. coli 260502G, agar): Red
- Colour ([22]; E. coli 260503Z, agar): Red
- Colour ([22]; E. coli 260504N, agar): Red
- Colour ([22]; E. coli 260505Q, agar): −
- Colour ([22]; E. coli 260506E, agar): Red
- Colour ([22]; E. coli 260508Y, agar): Red
- Colour ([22]; E. coli 260509W, agar): Red
- Colour ([22]; E. coli 260510R, agar): Red
- Colour ([22]; E. coli 260511X, agar): Red
- Colour ([22]; E. coli 260514G, agar): −
- Colour ([22]; E. coli 260515Z, agar): Red
- Colour ([22]; E. coli 260521S, agar): Red
- Colour ([22]; E. coli 260522Z, agar): Red
- Colour ([22]; E. coli 260532S, agar): Red
- Colour ([22]; E. coli 260533G, agar): Red
- Colour ([22]; E. coli 260536Q, agar): Red
- Colour ([22]; E. coli 260537E, agar): −
- Colour ([22]; E. coli 260538H, agar): −
- Colour ([22]; E. coli 260539Y, agar): Red
- Colour ([22]; E. coli 260541R, agar): Red
- Colour ([22]; E. coli 260545G, agar): Red
- Colour ([22]; E. coli 260547N, agar): Red
- Colour ([22]; E. coli 260548Q, agar): Red
- Colour ([22]; E. coli 260549E, agar): Red
- Colour ([22]; E. coli 260553X, agar): −
- Colour ([22]; E. coli 260554D, agar): Red
- Colour ([22]; E. coli 260555L, agar): Red
- Colour ([22]; E. coli 260563B, agar): Red
- Colour ([22]; E. coli 260564R, agar): Red
- Colour ([22]; E. coli 260578D, agar): −
- Colour ([22]; E. coli 2603121P, agar): −
